Reference: patent publication US9594073B2, “Test solvent for evaluating the compatibility of biologically active substances and graft copolymers” (ABBVIE DEUTSCHLAND GMBH & CO KG, priority 2010, dated 2017)

Experiment: Homogeneity of melt extrudates with Soluplus (optical microscope)
Assay type: physicochemical
Description: Samples were prepared by melt extrusions of mixtures consisting of fenofibrate or ibuprofen and Soluplus®. […] Aliquots of 50 g of the powdery mixtures were extruded on a laboratory extruder (Rondol l (10 mm) Rondol Technology Ltd. Staffordshire GB) using a conveying screw equipped with two kneading elements at about 120° C. and 100 rpm. The powdery mixtures were continuously metered in via a vibratory feeder. The extrudate exiting the extruder was passed through a calendar with two smooth rollers arranged at a gap distance of 0.4 mm. Calendered sheets having a thickness of about 1 mm were thus obtained. Pieces of 2 mm×2 mm were cut out from the sheets and homogeneity of the pieces was examined using an optical microscope (Leica DMLM).

Structure (SMILES): CC(C)Cc1ccc(C(C)C(=O)O)cc1 (centres unmarked) [ibuprofen]
- Amount of crystals in extrudate (ibuprofen concentration 40 wt %): no crystals
- Amount of crystals in extrudate (ibuprofen concentration 45 wt %): no crystals
- Amount of crystals in extrudate (ibuprofen concentration 50 wt %): low
- Amount of crystals in extrudate (ibuprofen concentration 55 wt %): moderate
- Amount of crystals in extrudate (ibuprofen concentration 60 wt %): high
